Laboratory results: US6639121B1, “Inducible cancer model to study the molecular basis of host tumor cell interactions in vivo” (Dana-Farber Cancer Institute, Inc., priority 1999, dated 2003)

Key:
[1] = tested on: Tyr/Tet-RAS INK4a−/− melanoma cell lines; assay: SCID explant tumorigenicity of melanoma cell lines; type: in vivo, mouse; conditions: SCID mice treated with doxycycline
Description: To this end, we first assessed the impact of doxycycline withdrawal in different Tyr/Tet-RAS INK4a−/− tumor derived cell lines in cell culture. […] The derivative melanoma cell lines remained doxycycline-responsive as shown by their strict doxycycline-dependency for tumorigenic potential in SCID mice. Specifically, subcutaneous injection of purified Tyr/Tet-RAS INK4a−/− melanoma cell lines yielded tumors in SCID mice treated with doxycycline with 100% efficiency, while those mice not receiving doxycycline remained tumor-free after many months of observation (FIG. 3A). […] On the other hand, the data is also consistent with the possibility that tumor regression following doxycycline withdrawal may reflect a continued requirement for RAS in promoting and sustaining non-cell-autonomous tumor-host interactions that are essential for tumor growth and maintenance.
Primary tumors, derivative cell lines and SCID explant tumors. Transgenic mice were fed doxycycline drinking water (2 mg/ml sucrose water) and observed for spontaneous tumor development. Primary tumors were adapted to culture by mechanical mincing with sterilized razor blades and brief trypsinization and maintained on RPMI media containing 10% serum and supplemented with doxycycline (2 μg/ml media)^4. […]

[2] = tested on: Tyr/Tet-RAS INK4a−/− mice; assay: Doxycycline-induced melanoma development in transgenic mice; type: in vivo, mouse; conditions: doxycycline in the drinking water from weaning
Description: To develop a cancer model in which dominantly acting oncoproteins are somatically regulated in vivo, transgenic mouse lines harboring the reverse tetracycline transactivator^2 under the control of the tyrosinase gene promoter-enhancer elements (designated Tyr-rtTA) and another containing the H-RAS^V12G open reading frame driven by a minimal promoter containing multimerized tet-operons.^2,3 (designated Tet-RAS) were inter-crossed with INK4a+/− mice to generate cohorts of single and double transgenic mice (designated Tyr/Tet-RAS) homozygous null for INK4a. Upon weaning, a subset of single and double transgenic INK4a −/− mice were administered doxycycline in the drinking water^4. In the doxycycline-treated group, 10 of 40 Tyr/Tet-RAS INK4a−/− mice developed melanomas with an average latency of 60 days (FIG. 1A). […] The Tyr/Tet-RAS INK4a−/− melanomas shared all of the macroscopic features of the constitutive Tyr-RAS INK4a−/− melanomas 5, manifesting as amelanotic, invasive and highly vascular tumors—features reminiscent of nodular-type melanoma in humans (for example, see FIGS. 2A&B).
Production of the transgenic mice. The reverse tetracycline transactivator (rtTA) is a 1050 bp EcoRI/BamHI fragment isolated from pUHD172-1neo^2. The Tet promoter contains a XhoI/EcoRI fragment of CMV minimal promoter linked to the tet operator sequences^2. […]

Question: What does the source list for C[C@H]1c2cccc(O)c2C(=O)C2=C(O)[C@]3(O)C(=O)C(C(N)=O)=C(O)[C@@H](N(C)C)[C@@H]3[C@@H](O)[C@@H]21 [doxycycline]?
Answer: efficiency of tumor formation after subcutaneous injection [1]: 100%; average latency of melanoma development [2]: 60 days
